Several values for one entry are separate records, joined by “and”; a condition that tells them apart may be missing. Equal entries are not always repeated.
Experiments:
calf thymus DNA = test: Binding to calf thymus DNA (differential pulse polarography); details: in the dark; ri=0.05, 10 mM NaClO4, 310 K
Experimental: Binding to calf thymus DNA: Samples of double-helical calf thymus DNA (32 μg mL^−1) were treated with the Pt complexes at the ri=0.05 (ri is defined as the molar ratio of free platinum complex to nucleotide phosphates at the onset of incubation with DNA) in NaClO4 (10 mM) and incubated at 310 K in the dark for complexes 5 or 6 (Figure 7 C and D). For complexes 1 or 2, samples were irradiated continuously with 420 nm light for 30 min and then further incubated in the dark for up to 24 h so that the activated forms of the complexes could bind DNA (Figure 7 A and B). The amount of Pt bound to DNA increased with time for all four complexes. […]
the UKS method with the unrestricted PBE1PBE functional was employed. […] Thirty-two singlet and eight triplet excited states with the corresponding oscillator strengths were determined with a Time-dependent Density Functional Theory (TDDFT)[15] calculation. […]
assayed by differential pulse polarography for free, unbound platinum.[16] The amount of platinum bound to DNA was calculated by subtracting the amount of free (unbound) platinum from the total amount of platinum present in the reaction. […]
This fragment contained T7 RNA polymerase promoter (in the upper strand close to its 3'-end). […] The fragments produced in RNA synthesis on the template modified by the platinum complexes were analysed by a 6% polyacrylamide/8M urea sequencing gel. […]

pUC19 plasmid DNA = test: Unwinding of negatively supercoiled DNA, native agarose gel; type: biochemical; details: in the dark
Experimental: Unwinding of negatively supercoiled DNA: The unwinding induced in negatively supercoiled pUC19 plasmid DNA by treatment with photoactivated 1 or 2 or with 5 or 6 in the dark was measured. The degree of supercoiling was monitored using electrophoresis in native agarose gels[25] (Figure 12). The DNA unwinding angles for 1, 2, 5, and 6 were 22(±3)°, 20(±3)°, 19(±5)° and 23(±2)°, respectively.
Figure 12 Unwinding of negatively supercoiled […] plasmid DNA by: A) 1, and B) 2 under irradiation conditions (420 nm light); or C) 5, and D) 6 in the dark. The top bands in each panel correspond to the form of nicked plasmid and the bottom bands to the closed, negatively supercoiled plasmid. A) Lane 1: control, non-modified DNA; lane 2: irradiated control DNA; […]: DNA modified by photoactivated 1 at rb=0.016, 0.024, 0.032, 0.041 and 0.049, respectively. B) Lanes 1 and 10: control, non-modified DNA; lane 2: irradiated control DNA; lanes 3–9: DNA modified by photoactivated 2 at rb=0.008, 0.011, 0.020, 0.026, 0.035, 0.042 and 0.050, respectively. C) Lanes 1 and 12: control, non-modified DNA; lanes 2–11: DNA modified by 5 in the dark at rb=0.018, 0.027, 0.036, 0.045, 0.054, 0.063, 0.072, 0.081, 0.090 and 0.1, respectively. […]

Row | SMILES | Pt bound after 24 h (calf thymus DNA) | Unwinding angle (pUC19 plasmid DNA)
1 | C[NH2+][Pt@SP3-2]([Cl])([Cl])[n+]1ccsc1 [Complex 6, trans-[PtCl2(MA)(Tz)]] | 63(±5) % and 63±5% | 23(±2) ° and 23±2 °
2 | C[NH2+][Pt@SP3-2]([Cl])([Cl])[n+]1ccccc1 [Complex 5, trans-[PtCl2(MA)(Py)]] | 80(±5) % and 80±5% | 19(±5) ° and 19±5 °
